According to patent publication US9920030B2 (priority 2006, dated 2018):

Assays:
Format in all cases: in vivo
[1] = test system: Plasmopara vilicola (the causal agent of grape downy mildew); experiment: Test A: grape downy mildew, test suspension sprayed on grape seedlings after inoculation, visual disease rating
Excerpt: General protocol for preparing test suspensions for Test A-C: The test compounds were first dissolved in acetone in an amount equal to 3% of the final volume and then suspended at the desired concentration (in ppm) in acetone and purified water (50/50 mix by volume) containing 250 ppm of the surfactant Trem® 014 (polyhydric alcohol esters). The resulting test suspensions were then used in Tests A-C. Spraying a 200 ppm test suspension to the point of run-off on the test plants was equivalent to a rate of 500 g/ha.
Grape seedlings were inoculated with a spore suspension of Plasmopara vilicola (the causal agent of grape downy mildew) and incubated in a saturated atmosphere at 20° C. for 24 h. After a short drying period, the test suspension was sprayed to the point of run-off on the grape seedlings, which were then moved to a growth chamber at 20° C. for 5 days, after which time the grape seedling were placed back into a saturated atmosphere at 20° C. for 24 h. Upon removal, visual disease ratings were made.
Results for Tests A-C are given in Table A. In the table, a rating of 100 indicates 100% disease control and a rating of 0 indicates no disease control (relative to the controls). A dash (-) indicates no test results.

[2] = test system: Phytophthora infestans (the causal agent of tomato late blight); experiment: whole plant or invertebrate
[3] = test system: Phytophthora infestans (the causal agent of tomato late blight); experiment: whole plant or invertebrate; remark: listed apart in the source
[4] = compounds without asterisk (application rate not given), 100 = 100% disease control, 0 = no control relative to the controls

Cc1cc(C(F)(F)F)nn1CC(=O)N1CCC(c2nc(C3=NCC(c4ccccc4)O3)cs2)CC1 (stereo not drawn) [Compound 47]
Percent Disease Control, Test A [1, 4]: 0%
Percent Disease Control, Test B [2, 4]: 85%
Percent Disease Control, Test C [3, 4]: 47%

Cc1cc(C(F)(F)F)nn1CC(=O)N1CCC(c2nc(C3=NCCC(c4ccccc4)O3)cs2)CC1 (stereo not drawn) [Compound 48]
Percent Disease Control, Test A [1, 4]: 0%
Percent Disease Control, Test B [2, 4]: 85%
Percent Disease Control, Test C [3, 4]: 0%

Cc1cc(C(F)(F)F)nn1CC(=O)N1CCC(c2nc(C3=NC(c4ccccc4)CO3)cs2)CC1 (stereo not drawn) [Compound 49]
Percent Disease Control, Test A [1, 4]: 0%
Percent Disease Control, Test B [2, 4]: 100%
Percent Disease Control, Test C [3, 4]: 96%

Cc1cc(C(F)(F)F)nn1CC(=O)N1CCC(c2nc(C3=NCC(c4ccccc4)O3)cs2)CC1 (stereo not drawn) [Compound 50]
Percent Disease Control, Test A [1, 4]: 0%
Percent Disease Control, Test B [2, 4]: 100%
Percent Disease Control, Test C [3, 4]: 99%

Cc1cc(C(F)(F)F)nn1CC(=O)N1CCC(c2nc(C3=NOC4c5ccccc5CC34)cs2)CC1 (stereo not drawn) [Compound 51]
Percent Disease Control, Test A [1, 4]: 99%
Percent Disease Control, Test B [2, 4]: 100%
Percent Disease Control, Test C [3, 4]: 99%

Cc1cc(C(F)(F)F)nn1CC(=O)N1CCC(c2nc(-c3nc4ccccc4o3)cs2)CC1 [Compound 52]
Percent Disease Control, Test A [1, 4]: 85%
Percent Disease Control, Test B [2, 4]: 100%
Percent Disease Control, Test C [3, 4]: 67%

Cc1cc(C(F)(F)F)nn1CC(=O)N1CCC(c2nc(C3=NCC(c4ccccc4)CO3)cs2)CC1 (stereo not drawn) [Compound 53]
Percent Disease Control, Test A ([1]; * tested at 40 ppm): 24%
Percent Disease Control, Test B ([2]; * tested at 40 ppm): 68%
Percent Disease Control, Test C ([3]; * tested at 40 ppm): 26%

Cc1cc(C(F)(F)F)nn1CC(=O)N1CCC(c2nc(C3=NC(c4ccccc4)CCO3)cs2)CC1 (stereo not drawn) [Compound 54]
Percent Disease Control, Test A [1, 4]: 16%
Percent Disease Control, Test B [2, 4]: 73%
Percent Disease Control, Test C [3, 4]: 0%

COC(=O)C1CC(c2csc(C3CCN(C(=O)Cn4nc(C(F)(F)F)cc4C)CC3)n2)=NO1 (stereo not drawn) [Compound 55]
Percent Disease Control, Test A [1, 4]: 17%
Percent Disease Control, Test B [2, 4]: 26%
Percent Disease Control, Test C [3, 4]: 0%

Cc1cc(C(F)(F)F)nn1CC(=O)N1CCC(c2nc(C3=NOC(C(C)(C)C)C3)cs2)CC1 (stereo not drawn) [Compound 56]
Percent Disease Control, Test A [1, 4]: 99%
Percent Disease Control, Test B [2, 4]: 100%
Percent Disease Control, Test C [3, 4]: 99%

Cc1cc(C(F)(F)F)nn1CC(=O)N1CCC(c2nc(C3=NOC(CCBr)C3)cs2)CC1 (stereo not drawn) [Compound 57]
Percent Disease Control, Test A [1, 4]: 99%
Percent Disease Control, Test B [2, 4]: 100%
Percent Disease Control, Test C [3, 4]: 99%

Cc1cc(C(F)(F)F)nn1CC(=O)N1CCC(c2nc(-c3nc4ccccc4[nH]3)cs2)CC1 [Compound 58]
Percent Disease Control, Test A [1, 4]: 0%
Percent Disease Control, Test B [2, 4]: 99%
Percent Disease Control, Test C [3, 4]: 0%

Cc1cc(C(F)(F)F)nn1CC(=O)N1CCC(c2nc(-c3cc(-c4ccccc4F)on3)cs2)CC1 [Compound 59]
Percent Disease Control, Test A ([1]; * tested at 40 ppm): 97%
Percent Disease Control, Test B ([2]; * tested at 40 ppm): 100%
Percent Disease Control, Test C ([3]; * tested at 40 ppm): 91%

Cc1cc(C(F)(F)F)nn1CC(=O)N1CCC(c2nc(-c3cc(-c4ccccc4C(F)(F)F)on3)cs2)CC1 [Compound 60]
Percent Disease Control, Test A [1, 4]: 100%
Percent Disease Control, Test B [2, 4]: 95%
Percent Disease Control, Test C [3, 4]: 94%

Cc1cc(C(F)(F)F)nn1CC(=O)N1CCC(c2nc(-c3ccc4ccccc4c3)cs2)CC1 [Compound 61]
Percent Disease Control, Test A [1, 4]: 80%
Percent Disease Control, Test B [2, 4]: 77%
Percent Disease Control, Test C [3, 4]: 0%

Cc1cc(C(F)(F)F)nn1CC(=O)N1CCC(c2nc(-c3ccccc3)cs2)CC1 [Compound 62]
Percent Disease Control, Test A [1, 4]: 73%
Percent Disease Control, Test B [2, 4]: 73%
Percent Disease Control, Test C [3, 4]: 26%

Cc1cc(C(F)(F)F)nn1CC(=O)N1CCC(c2nc(-c3cc(-c4ccc(F)cc4F)on3)cs2)CC1 [Compound 64]
Percent Disease Control, Test A [1, 4]: 90%
Percent Disease Control, Test B [2, 4]: 99%
Percent Disease Control, Test C [3, 4]: 88%

Cc1cc(C(F)(F)F)nn1CC(=O)N1CCC(c2nc(C3CC(=O)N(c4ccccc4)C3)cs2)CC1 (stereo not drawn) [Compound 65]
Percent Disease Control, Test A [1, 4]: 46%
Percent Disease Control, Test B [2, 4]: 100%
Percent Disease Control, Test C [3, 4]: 83%
